Experiment: ferrozine based iron oxidation (ferroxidase) assay
Assay type: biochemical
Details: for Vmax, rate of iron oxidation: another set of ferrozine-based assays, 0.5 μM each; for Vmax of iron oxidation: first set, 6.5 nM of protein; for ferroxidase activity when synthesized as a distinct peptide: statement in summary, no values
Description: Computer-based alignments of APP and H-ferritin were run using the Gap and Bestfit sequence alignment programs for Vax software. […] Bovine serum albumin (BSA) served as a negative control for these experiments since 6.5 μM BSA provided a 5-fold lower apparent rate of iron oxidation (an apparent reaction rate of 0.1 μM iron oxidized per minute). It was concluded that purified, secreted APP ectodomain specifically catalyzes the oxidation of 100-fold more iron per minute than the amount of APP present. This is an indication that APP harbors one or more sites for catalytic iron oxidation.
Using synthetic peptides, it was confirmed that sequences overlapping the newly identified FOX-1 domain in APP function as intrinsic ferroxidases. A peptide designated as “A2” (coding for residues 316 to 337 in APP-695)was tested. […] Ceruloplasmin (Cp) was used as a positive control since Cp is a known copper-dependent iron oxidase. […] The standard error for each of these reactions was less than 5%.
The known RERMS domain of APP (319 to 335 with respect to APP-695) is a cytoprotective region of APP and overlaps the A2 to peptide described above. […] The 827 sequence is HRBRMSQVMREWEEAERQAKNL (SEQ ID NO: 6), encoding 9 amino terminal amino acids that overlap with the RERMS peptide. In addition, 827 has 13 unique amino acids that align with the ferritin iron oxidase domain, as present in FOX-1. […] It was concluded that peptides spanning sequences from 316 to 346 of APP-695 can be used as agents to protect cells from iron catalyzed cellular damage.

A2 peptide: synthetic peptide coding for residues 316 to 337 in APP-695, overlaps RERMS domain (CAPFFYGGCGGNRNNFDTEEYC; APP695; UniProt P05067 316-337, looked up, fragment)
rate of iron oxidation compared with BSA or RNase-A (0.5 μM): significantly higher | Vmax, rate of iron oxidation: 2.78 µM/min | iron oxidase activity Vmax (second set, 0.5 μM peptide): 2.96 μM/min/0.5 μM peptide

APP: purified, secreted human amyloid precursor protein ectodomain
Vmax of iron oxidation: 0.5 µM/min | iron oxidized per minute relative to the amount of APP present (purified, secreted APP ectodomain): 100 fold

DGDEVEEEAEPYEEATERTTSIA (listed as Homo sapiens) [FOX-2, peptide corresponding to the complete FOX-2 domain, between amino acids 250 and 273 in APP-695]
ferroxidase activity when synthesized as a distinct peptide: has ferroxidase activity

HRERMSQVMREWEEAERQAKNL (listed as Homo sapiens) [827 peptide, first 13 N-terminal amino acids of FOX-1 fused to nine amino acids from the RERMS domain of APP-695 (327–348)]
Vmax, rate of iron oxidation: 7.36 µM/min

REWEEAERQAKNLPKADKKAVIQH (listed as Homo sapiens) [FOX-1]
ferroxidase activity when synthesized as a distinct peptide: has ferroxidase activity

B1: Ceruloplasmin: known copper-dependent iron oxidase (ferroxidase), positive control (protein, UniProt P00450 20-1065, looked up)
Ceruloplasmin: KEKHYYIGIIETTWDYASDHGEKKLISVDTEHSNIYLQNGPDRIGRLYKKALYLQYTDETFRTTIEKPVWLGFLGPIIKAETGDKVYVHLKNLASRPYTFHSHGITYYKEHEGAIYPDNTTDFQRADDKVYPGEQYTYMLLATEEQSPGEGDGNCVTRIYHSHIDAPKDIASGLIGPLIICKKDSLDKEKEKHIDREFVVMFSVVDENFSWYLEDNIKTYCSEPEKVDKDNEDFQESNRMYSVNGYTFGSLPGLSMCAEDRVKWYLFGMGNEVDVHAAFFHGQALTNKNYRIDTINLFPATLFDAYMVAQNPGEWMLSCQNLNHLKAGLQAFFQVQECNKSSSKDNIRGKHVRHYYIAAEEIIWNYAPSGIDIFTKENLTAPGSDSAVFFEQGTTRIGGSYKKLVYREYTDASFTNRKERGPEEEHLGILGPVIWAEVGDTIRVTFHNKGAYPLSIEPIGVRFNKNNEGTYYSPNYNPQSRSVPPSASHVAPTETFTYEWTVPKEVGPTNADPVCLAKMYYSAVEPTKDIFTGLIGPMKICKKGSLHANGRQKDVDKEFYLFPTVFDENESLLLEDNIRMFTTAPDQVDKEDEDFQESNKMHSMNGFMYGNQPGLTMCKGDSVVWYLFSAGNEADVHGIYFSGNTYLWRGERRDTANLFPQTSLTLHMWPDTEGTFNVECLTTDHYTGGMKQKYTVNQCRRQSEDSTFYLGERTYYIAAVEVEWDYSPQREWEKELHHLQEQNVSNAFLDKGEFYIGSKYKKVVYRQYTDSTFRVPVERKAEEEHLGILGPQLHADVGDKVKIIFKNMATRPYSIHAHGVQTESSTVTPTLPGETLTYVWKIPERSGAGTEDSACIPWAYYSTVDQVKDLYSGLIGPLIVCRRPYLKVFNPRRKLEFALLFLVFDENESWYLDDNIKTYSDHPEKVNKDDEEFIESNKMHAINGRMFGNLQGLTMHVGDEVNWYLMGMGNEIDLHTVHFHGHSFQYKHRGVYSSDVFDIFPGTYQTLEMFPRTPGIWLLHCHVTDHIHAGMETTYTVLQNEDTKSG
Vmax, rate of iron oxidation: 6.41 µM/min | Vmax of iron oxidation: 5 µM/min | reaction velocity (Vmax) (second set, 0.5 μM protein, n=6, positive control): 4.2 µM iron/min/0.5 µM protein

B2: RNaseTI: control protein in the second set of ferrozine-based assays (protein, UniProt P00651 27-130, looked up)
Guanyl-specific ribonuclease …: ACDYTCGSNCYSSSDVSTAQAAGYQLHEDGETVGSNSYPHKYNNYEGFDFSVSSPYYEWPILSSGDVYSGGSPGADRVVFNENNQLAGVITHTGASGNNFVECT
Vmax, rate of iron oxidation: 1.05 µM/min

B3: RNase-A: negative control protein (protein, UniProt P61823 27-150, looked up)
Ribonuclease pancreatic: KETAAAKFERQHMDSSTSAASSSNYCNQMMKSRNLTKDRCKPVNTFVHESLADVQAVCSQKNVACKNGQTNCYQSYSTMSITDCRETGSSKYPNCAYKTTQANKHIIVACEGNPYVPVHFDASV
apparent Vmax (second set, 0.5 μM, n=6, negative control): 1.96 µM iron/min/0.5 µM peptide
